From patent US20120093822A1, “DOPAMINE D2 RECEPTOR-DISC1 INTERACTION, COMPOSITIONS AND METHODS FOR MODULATING SAME” (Centre Forr Addiction And Mental Health, priority 2009, published 2012)
Entries after “also recorded” stand apart in the source; their conditions may differ.

Key:
D2-DISC1 interaction [1] = experiment: Apomorphine-induced disruption of pre-pulse inhibition (PPI) of the acoustic startle reflex in rats; type: in vivo, rat; settings: rats
From the text: PPI of the acoustic startle reflex is a sensorimotor gating process known to be deficient in a number of neurologic and psychiatric conditions including, but not limited to schizophrenia, Huntington's disease, Tourette's syndrome, and obsessive compulsive disorder (OCD).

D2-DISC1 interaction [2] = experiment: Co-immunoprecipitation of D2-DISC1 after ICV administration of peptide; type: in vivo, rat; settings: administered via ICV; data not shown
From the text: PPI of the acoustic startle reflex is a sensorimotor gating process known to be deficient in a number of neurologic and psychiatric conditions including, but not limited to schizophrenia, Huntington's disease, Tourette's syndrome, and obsessive compulsive disorder (OCD). PPI can be disrupted by the dopamine DI/D2R agonist apomorphine in rats (111). […] Accordingly, if D2-DISC1 interaction plays an important role in the D2R-mediated reduction of phosphorylation of GSK-3α/β, disruption of the D2R-DISC1 interaction should reverse D2R-associated behaviours such as PPI deficit. […] These effects could not be explained in terms of altered startle reactivity (data not shown). The ability of the TAT-D2pep (administered via ICV) to disrupt the D2-DISC1 interaction was confirmed in co-immunoprecipitation experiments (data not shown).

Sequence of D2-DISC1 interaction (P61169 whole entry): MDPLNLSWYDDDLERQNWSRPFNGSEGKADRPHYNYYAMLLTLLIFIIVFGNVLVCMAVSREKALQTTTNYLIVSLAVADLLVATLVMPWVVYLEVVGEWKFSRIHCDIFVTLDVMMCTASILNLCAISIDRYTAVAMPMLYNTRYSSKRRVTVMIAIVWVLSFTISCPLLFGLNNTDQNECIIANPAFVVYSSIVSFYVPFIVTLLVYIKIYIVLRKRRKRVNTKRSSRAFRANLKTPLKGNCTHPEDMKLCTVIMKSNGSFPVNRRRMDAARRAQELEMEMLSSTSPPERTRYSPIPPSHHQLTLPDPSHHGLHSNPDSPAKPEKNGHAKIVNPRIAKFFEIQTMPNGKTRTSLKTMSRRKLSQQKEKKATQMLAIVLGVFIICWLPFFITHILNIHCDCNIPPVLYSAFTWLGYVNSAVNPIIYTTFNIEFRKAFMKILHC
Sequence of D2-DISC1 interaction (Q810H6 whole entry, further chain): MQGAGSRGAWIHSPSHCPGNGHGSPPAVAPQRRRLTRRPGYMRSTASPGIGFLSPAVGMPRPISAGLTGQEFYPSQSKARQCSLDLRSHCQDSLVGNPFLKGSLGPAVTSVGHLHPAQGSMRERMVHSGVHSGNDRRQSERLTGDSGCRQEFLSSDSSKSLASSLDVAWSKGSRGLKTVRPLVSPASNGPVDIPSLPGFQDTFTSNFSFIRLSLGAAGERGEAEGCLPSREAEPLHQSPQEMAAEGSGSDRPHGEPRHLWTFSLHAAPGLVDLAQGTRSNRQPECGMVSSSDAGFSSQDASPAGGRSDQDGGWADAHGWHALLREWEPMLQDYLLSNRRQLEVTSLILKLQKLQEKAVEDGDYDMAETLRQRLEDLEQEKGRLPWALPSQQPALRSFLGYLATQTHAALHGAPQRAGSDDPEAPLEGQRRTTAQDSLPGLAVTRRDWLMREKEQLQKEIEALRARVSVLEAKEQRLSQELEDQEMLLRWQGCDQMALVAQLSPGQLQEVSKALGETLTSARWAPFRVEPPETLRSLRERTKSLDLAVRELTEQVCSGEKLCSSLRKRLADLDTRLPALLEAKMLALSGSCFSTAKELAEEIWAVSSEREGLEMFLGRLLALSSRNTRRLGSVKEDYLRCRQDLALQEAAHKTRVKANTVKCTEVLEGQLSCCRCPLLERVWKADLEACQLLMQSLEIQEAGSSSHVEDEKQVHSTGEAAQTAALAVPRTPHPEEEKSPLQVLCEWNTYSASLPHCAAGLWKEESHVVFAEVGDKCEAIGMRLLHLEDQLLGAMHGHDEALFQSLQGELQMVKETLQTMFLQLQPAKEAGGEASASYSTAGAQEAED

Substance: TAT-D2pep: TAT-D2 pep [K211-T225]: YGRKKRRQRRRKIYIVLRRRRKRVNT (SEQ ID NO:2) (TAT-[K211-T225]D2R fusion protein)
- Effect on apomorphine-induced disruption of PPI (D2-DISC1 interaction [1]; apomorphine 0.3 mg/kg SC, peptide ICV (1 mM, 4 μl; 40 nmol), n=5 per group): completely reversed the effects of apomorphine; also recorded: significantly reversed the disruption of PPI
- Effect on basal PPI (degree of PPI without apomorphine) (D2-DISC1 interaction [1]; peptide ICV): without altering the degree of PPI
- Ability to disrupt the D2-DISC1 interaction (co-immunoprecipitation) (D2-DISC1 interaction [2]): confirmed
